One test deals with neonatal murine calvaria. Conditions: L-arginine alone, 20 μM.
Another test relates to bone mass. Conditions: Horiuchi et al. 2001, Kinoshita et al. 2000; cited from earlier work.
For another test, the system named is osteoprogenitor cells. Conditions: cells treated with dexamethasone in vitro; Cui et al. 1996; cited from earlier work.
The test system of a further test is bone resorption. Conditions: lipid clearing agents; Wang et al. 1995; cited from earlier work.
In another test the test system is three month old S-D rats. Kind of test: Bone mineral density in rats treated orally by gavage for 16 weeks. Format: in vivo, rat. Conditions: oral gavage, S-D rats (FIG. 4 lower panel). As for the experimental part: Statin equivalence: 100 mg/kg/day=0.72 mg/day; 400 mg/kg/day=2.9 mg/day; and 800 mg/kg/day=5.8 mg/day.
In this experiment, experimental groups of three month old S-D rats were used. Food was removed from the cages 6 hours prior to dosing. The animals were then treated orally by gavage once a day with vehicle (0.5% methylcellulose), lovastatin, or OsteoPure™ (lovastatin-containing reduced rice extract). OsteoPure™ was administered at 100, 400, or 800 mg/kg/day five days a week for 16 weeks. The statin equivalence in OsteoPure™ is 100 mg/kg/day=0.72 mg/day; 400 mg/kg/day=2.9 mg/day; and 800 mg/kg/day=5.8 mg/day. Rats were weighed weekly. Bone mineral density (BMD) were analyzed every four weeks. In the upper panel, the bone mineral densities (BMDs) are shown. In the lower panel, the % change in BMDs of the experimental over the 16 weeks is shown. […] This trend is confirmed in the long term analysis of percent change in BMDs shown in the lower panel.

A further test has as its system rats. Conditions: injected locally into the subcutaneous tissues of rats; Wozney 1992; cited from earlier work.

Method for neonatal murine calvaria: Selected compounds and appropriate controls were assayed in vitro (ex vivo) for bone formation activity (described above in “In Vitro Neonatal Mouse Calvaria Assay”). Histomorphometrical assessments of ex vivo calvaria were carried out using an OsteoMetrics bone morphometry measurement program, according to the manufacturer's instructions. Measurements were determined using either a 10- or 20-fold objective with a standard point counting eyepiece graticule.

Consider `N=C(N)NCCC[C@H](N)C(=O)O` [L-arginine], for which, in the test with neonatal murine calvaria, the bone formation result is reported as “induces bone formation”.

With `COc1ccc(C2CNC(=O)C2)cc1OC1CCCC1` (stereo not shown) [rolipram], in the test with bone mass, the bone mass entry was “increase bone mass by promoting bone formation”.

As for `CC(=O)CCCCn1c(=O)c2c(ncn2C)n(C)c1=O` [pentoxifylline], the bone mass entry in the test with bone mass is recorded as “increase bone mass by promoting bone formation”.

In the case of `CC[C@H](C)C(=O)O[C@H]1C[C@@H](C)C=C2C=C[C@H](C)[C@H](CC[C@@H]3C[C@@H](O)CC(=O)O3)[C@H]21` [lovastatin], the “triglyceride vesicles in osteoprogenitor cells” value in the test with osteoprogenitor cells is recorded as “diminished triglyceride vesicles”. Also, in the test on bone resorption, the “bone resorption induced by steroid administration” value is given as “inhibit bone resorption induced by steroid administration”. In addition, the “percent change in BMDs over 16 weeks, co-administered with L-arginine relative to the agent alone” value in the test with three month old S-D rats is recorded as “greater increase in BMDs”.

B1: BMP-4: recombinant bone morphogenic protein (protein, UniProt P12644 293-408, looked up)
Bone morphogenetic protein 4: SPKHHSQRARKKNKNCRRHSLYVDFSDVGWNDWIVAPPGYQAFYCHGDCPFPLADHLNSTNHAIVQTLVNSVNSSIPKACCVPTELSAISMLYLDEYDKVVLKNYQEMVVEGCGCR
B1: the new bone formation entry in the test with rats is given as “can induce new bone formation”.

Values taken from patent US20040254238A1, “Bone growth stimulation with NO/statin and other NO modulating combinations” (OSTEOSCREEN, priority 2003, published 2004).
